{"source": "paper PMC10747822", "about": "(Pharmaceutics, 2023)", "key": {"[1]": {"experiment": "Autosampler (extract) stability", "type": "physicochemical", "details": "24 h in autosampler", "description": "Blood samples for calibration and QC purposes were generated through the addition of 25 µL of the pertinent spike solution to 20 µL of blank blood and the subsequent addition of 25 µL of IS solution. Calibration samples were produced at 10, 30, 100, 300, 1000, 3000, and 10,000 ng/mL, and QC samples were produced at concentrations of 10, 30, 3750, and 7500 ng/mL. For study sample processing, 20 µL of each sample was added to 25 µL of IS solution, and 25 µL of ACN/H2O 1/1 + 0.1% FA was added for volume compensation to ensure that sample preparation matches that of study blood samples. For stability reasons, each sample was immediately depleted from proteins by adding 150 µL ACN including 0.1% FA. Samples were processed individually and kept frozen until processing. Subsequently, samples were centrifuged at 13,200× g for 5 min. From the extracts, 10 µL was transferred to 400 µL of ACN/H2O 1/19 + 0.1% FA in wells of a 96-well collection plate (Waters, Milford, MA, USA).\nThe instrumental setup comprised an Acquity UPLC® Classic System coupled to a Xevo TQ-S triple-stage quadrupole mass spectrometer, which was equipped with a Z-spray heated electrospray ionization (ESI) source (Waters, Milford, MA, USA). […] This yielded an optimal cone voltage of 30 V and collision energy of 10 V. The monitored mass transitions were m/z 343.3 → 436.9 for Ac-[D-Leu]LLLRVK-amba and m/z 345.6 → 440.4 for the IS.\nThe applicable recommendations for bioanalytical method validation of the FDA and EMA were applied to the validation of the assay. Accuracy was calculated as the percentage of the ratio of the mean of the determined concentrations and the nominal concentration. The acceptance limit is 100 ± 15%, with the exception of the LLOQ where it is 100 ± 20% Q. The assay precision was calculated as the coefficient of variation of the determined sample concentrations. […] Recovery of the whole blood extraction process was calculated from peak areas of QC samples divided by the peak areas obtained from blank blood spiked with the respective amount after processing. […]"}, "PACE4": {"test_system": "PACE4", "details": "cited from earlier work", "description": "PACE4 is a calcium-dependent serine endoprotease, which has been identified as a potential therapeutic target in prostate cancer. Recently, an efficient inhibitory peptide for PACE4 has been reported, Ac-[D-Leu]LLLRVK-amba, which inhibits PACE4 with low nanomolar affinity. Such high affinity was achieved by optimizing the previously discovered multi-Leu peptide by inserting a […] acetylated D-leucine and replacing the […] arginine with a decarboxylated variant, a 4-amidinobenzylamide (amba) moiety."}}, "note": "Where a SMILES comes first, the peptide text is derived from it. [ ]: non-standard residue; d: D form. The star is where a group is joined. NH(4-amidinobenzyl) = N=C(N)c1ccc(CN*)cc1"}
{"compound": "CC(=O)N[C@H](CC(C)C)C(=O)N[C@@H](CC(C)C)C(=O)N[C@@H](CC(C)C)C(=O)N[C@@H](CC(C)C)C(=O)N[C@@H](CCCNC(=N)N)C(=O)N[C@H](C(=O)N[C@@H](CCCCN)C(=O)NCc1ccc(C(=N)N)cc1)C(C)C", "note": "[Ac-[D-Leu]LLLRVK-amba] (Ac-[dL]LLLRVK-{NH(4-amidinobenzyl)})", "values": [{"measurement": "autosampler (extract) stability, Accuracy [%]", "setting": "[1]; QC A", "result": 98.3, "unit": "%"}, {"measurement": "autosampler (extract) stability, Accuracy [%]", "setting": "[1]; QC B", "result": 99.7, "unit": "%"}, {"measurement": "autosampler (extract) stability, Accuracy [%]", "setting": "[1]; QC C", "result": 97.5, "unit": "%"}, {"measurement": "affinity of PACE4 inhibition", "setting": "PACE4", "result": "low nanomolar"}]}
